Reference: PubChem BioAssay (NCI)
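48-hour exposure; five concentrations; linearly interpolated endpoints. GI50 = concentration required for 50% inhibition of growth. The concentration for full growth arrest is given as TGI.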

Key:
Test in all cases: NCI anticancer screen, dose series, 48 h
M14 melanoma = tested on: M14 melanoma
U251 CNS = tested on: U251 CNS
SNB-19 CNS = tested on: SNB-19 CNS
LOX IMVI melanoma = tested on: LOX IMVI melanoma
MDA-MB-468 breast = tested on: MDA-MB-468 breast
TK-10 renal = tested on: TK-10 renal
EKVX NSCLC = tested on: EKVX NSCLC
SK-OV-3 ovarian = tested on: SK-OV-3 ovarian
HT29 colon = tested on: HT29 colon
NCI-H23 lung = tested on: NCI-H23 lung
SK-MEL-2 melanoma = tested on: SK-MEL-2 melanoma
UACC-257 melanoma = tested on: UACC-257 melanoma
A549 NSCLC = tested on: A549 NSCLC
PC-3 prostate = tested on: PC-3 prostate
NCI-H522 lung = tested on: NCI-H522 lung
CAKI-1 renal = tested on: CAKI-1 renal
UO-31 renal = tested on: UO-31 renal
MALME-3M melanoma = tested on: MALME-3M melanoma
MCF7 breast = tested on: MCF7 breast
SW-620 colon = tested on: SW-620 colon
HL-60(TB) leukemia = tested on: HL-60(TB) leukemia
HOP-92 NSCLC = tested on: HOP-92 NSCLC
OVCAR-4 ovarian = tested on: OVCAR-4 ovarian
HOP-62 NSCLC = tested on: HOP-62 NSCLC
OVCAR-3 ovarian = tested on: OVCAR-3 ovarian
HS 578T breast = tested on: HS 578T breast
RPMI-8226 leukemia = tested on: RPMI-8226 leukemia
MOLT-4 leukemia = tested on: MOLT-4 leukemia
HCC-2998 colon = tested on: HCC-2998 colon
NCI-H226 lung = tested on: NCI-H226 lung
DU-145 prostate = tested on: DU-145 prostate
OVCAR-8 ovarian = tested on: OVCAR-8 ovarian
NCI/ADR-RES ovarian = tested on: NCI/ADR-RES ovarian
RXF 393 renal = tested on: RXF 393 renal
SF-539 CNS = tested on: SF-539 CNS
MDA-MB-435 = tested on: MDA-MB-435
T-47D breast = tested on: T-47D breast
NCI-H460 lung = tested on: NCI-H460 lung
SF-268 CNS = tested on: SF-268 CNS
A498 renal = tested on: A498 renal
786-0 renal = tested on: 786-0 renal
SK-MEL-5 melanoma = tested on: SK-MEL-5 melanoma
ACHN renal = tested on: ACHN renal
SNB-75 CNS = tested on: SNB-75 CNS
HCT-116 colon = tested on: HCT-116 colon
SR leukemia = tested on: SR leukemia
BT-549 breast = tested on: BT-549 breast
HCT-15 colon = tested on: HCT-15 colon
OVCAR-5 ovarian = tested on: OVCAR-5 ovarian
KM12 colon = tested on: KM12 colon
SF-295 CNS = tested on: SF-295 CNS
K-562 leukemia = tested on: K-562 leukemia
IGROV1 ovarian = tested on: IGROV1 ovarian
COLO 205 colon = tested on: COLO 205 colon
UACC-62 melanoma = tested on: UACC-62 melanoma
SK-MEL-28 melanoma = tested on: SK-MEL-28 melanoma
MDA-MB-231 breast = tested on: MDA-MB-231 breast
SN12C renal = tested on: SN12C renal
CCRF-CEM leukemia = tested on: CCRF-CEM leukemia

C=CC(=O)Nc1ccc(C(=O)/C=C/c2ccc(N(C)CCF)cc2)c(O)c1
GI50 (M14 melanoma): 1.7 µM | TGI (M14 melanoma): 4.19 µM | GI50 (U251 CNS): 1.88 µM | TGI (U251 CNS): 5.17 µM | GI50 (SNB-19 CNS): 3.67 µM | TGI (SNB-19 CNS): 15 µM | GI50 (LOX IMVI melanoma): 1.33 µM | TGI (LOX IMVI melanoma): 2.69 µM | GI50 (MDA-MB-468 breast): 1.63 µM | TGI (MDA-MB-468 breast): 4.28 µM | GI50 (TK-10 renal): 3.12 µM | TGI (TK-10 renal): 8.4 µM | GI50 (EKVX NSCLC): 3.37 µM | TGI (EKVX NSCLC): 13.8 µM | GI50 (SK-OV-3 ovarian): 6.47 µM | TGI (SK-OV-3 ovarian): 21.4 µM | GI50 (HT29 colon): 1.57 µM | TGI (HT29 colon): 3.31 µM | GI50 (NCI-H23 lung): 1.68 µM | TGI (NCI-H23 lung): 3.99 µM | GI50 (SK-MEL-2 melanoma): 2.53 µM | TGI (SK-MEL-2 melanoma): 7.88 µM | GI50 (UACC-257 melanoma): 2.53 µM | TGI (UACC-257 melanoma): 10.9 µM | GI50 (A549 NSCLC): 2.62 µM | TGI (A549 NSCLC): 12.7 µM | GI50 (PC-3 prostate): 2.22 µM | TGI (PC-3 prostate): 13.6 µM | GI50 (NCI-H522 lung): 1.42 µM | TGI (NCI-H522 lung): 2.95 µM | GI50 (CAKI-1 renal): 1.87 µM | TGI (CAKI-1 renal): 4.14 µM | GI50 (UO-31 renal): 1.28 µM | TGI (UO-31 renal): 3.74 µM | GI50 (MALME-3M melanoma): 1.43 µM | TGI (MALME-3M melanoma): 3.46 µM | GI50 (MCF7 breast): 1.89 µM | TGI (MCF7 breast): 10.7 µM | GI50 (SW-620 colon): 1.52 µM | TGI (SW-620 colon): 3.36 µM | GI50 (HL-60(TB) leukemia): 1.77 µM | TGI (HL-60(TB) leukemia): 5.3 µM | GI50 (HOP-92 NSCLC): 0.527 µM | TGI (HOP-92 NSCLC): 4 µM | GI50 (OVCAR-4 ovarian): 2.95 µM | TGI (OVCAR-4 ovarian): 14 µM | GI50 (HOP-62 NSCLC): 3.26 µM | TGI (HOP-62 NSCLC): 13 µM | GI50 (OVCAR-3 ovarian): 1.62 µM | TGI (OVCAR-3 ovarian): 4.53 µM | GI50 (HS 578T breast): 2.97 µM | TGI (HS 578T breast): 17.3 µM | GI50 (RPMI-8226 leukemia): 1.6 µM | TGI (RPMI-8226 leukemia): 5.92 µM | GI50 (MOLT-4 leukemia): 1.99 µM | TGI (MOLT-4 leukemia): 6.85 µM | GI50 (HCC-2998 colon): 1.78 µM | TGI (HCC-2998 colon): 3.64 µM | GI50 (NCI-H226 lung): 1.92 µM | TGI (NCI-H226 lung): 5.32 µM | GI50 (DU-145 prostate): 2.52 µM | TGI (DU-145 prostate): 10.3 µM | GI50 (OVCAR-8 ovarian): 1.51 µM | TGI (OVCAR-8 ovarian): 3.86 µM | GI50 (NCI/ADR-RES ovarian): 1.55 µM | TGI (NCI/ADR-RES ovarian): 4.4 µM | GI50 (RXF 393 renal): 1.52 µM | TGI (RXF 393 renal): 3.09 µM | GI50 (SF-539 CNS): 1.67 µM | TGI (SF-539 CNS): 3.5 µM | GI50 (MDA-MB-435): 1.72 µM | TGI (MDA-MB-435): 4.6 µM | GI50 (T-47D breast): 2.47 µM | TGI (T-47D breast): 10 µM | GI50 (NCI-H460 lung): 1.87 µM | TGI (NCI-H460 lung): 5.46 µM | GI50 (SF-268 CNS): 2.47 µM | TGI (SF-268 CNS): 8.58 µM | GI50 (A498 renal): 3.52 µM | TGI (A498 renal): 17.7 µM | GI50 (786-0 renal): 1.65 µM | TGI (786-0 renal): 3.57 µM | GI50 (SK-MEL-5 melanoma): 2.14 µM | TGI (SK-MEL-5 melanoma): 6.49 µM | GI50 (ACHN renal): 1.66 µM | TGI (ACHN renal): 3.45 µM | GI50 (SNB-75 CNS): 2.1 µM | TGI (SNB-75 CNS): 9.84 µM | GI50 (HCT-116 colon): 1.5 µM | TGI (HCT-116 colon): 3 µM | GI50 (SR leukemia): 0.586 µM | TGI (SR leukemia): 6.2 µM | GI50 (BT-549 breast): 1.55 µM | TGI (BT-549 breast): 3.78 µM | GI50 (HCT-15 colon): 1.41 µM | TGI (HCT-15 colon): 3.01 µM | GI50 (OVCAR-5 ovarian): 1.98 µM | TGI (OVCAR-5 ovarian): 4.3 µM | GI50 (KM12 colon): 2.1 µM | TGI (KM12 colon): 5.25 µM | GI50 (SF-295 CNS): 4.49 µM | TGI (SF-295 CNS): 18.9 µM | GI50 (K-562 leukemia): 2.27 µM | TGI (K-562 leukemia): 24 µM | GI50 (IGROV1 ovarian): 2 µM | TGI (IGROV1 ovarian): 6 µM | GI50 (COLO 205 colon): 1.98 µM | TGI (COLO 205 colon): 4.86 µM | GI50 (UACC-62 melanoma): 1.3 µM | TGI (UACC-62 melanoma): 2.77 µM | GI50 (SK-MEL-28 melanoma): 1.58 µM | TGI (SK-MEL-28 melanoma): 3.14 µM | GI50 (MDA-MB-231 breast): 2.19 µM | TGI (MDA-MB-231 breast): 5.58 µM | GI50 (SN12C renal): 1.86 µM | TGI (SN12C renal): 5.2 µM | GI50 (CCRF-CEM leukemia): 2.15 µM | TGI (CCRF-CEM leukemia): 10.5 µM
